In publication PMC11748363, “Antimicrobial and Antiproliferative Properties of 2‐Phenyl‐N‐(Pyridin‐2‐yl)acetamides” (Chemical Biology & Drug Design, 2025):
Values after ≈ are worked out from the molar mass of the structure shown. Where two headings read alike, the source gives them in different places.

Assays:
[1] = system: Candida parapsilosis CCM 8260, ATCC 22019; assay: Antifungal microdilution broth MIC, CP; details: Lodderomyces parapsilosis
[2] = system: Staphylococcus aureus subsp. aureus CCM 4750, ATCC 43300 (MRSA); assay: Antibacterial microdilution broth MIC, MRSA; type: cell-based; details: Staphylococcus aureus
[3] = system: Candida albicans CCM 8320, ATCC 24433; assay: Antifungal microdilution broth MIC, CA
[4] = system: Candida krusei CCM 8271, ATCC 6258; assay: Antifungal microdilution broth MIC, CK; details: Pichia kudriavzevii
[5] = system: Aspergillus fumigatus ATCC 204305; assay: Antifungal microdilution broth MIC, AF
HepG2 cell line = assay: Cytotoxicity CellTiter 96, HepG2; type: cell-based, human; details: Homo sapiens, HepG2, 24 h, 24 h incubation; ^c compound precipitated in the testing medium; ^d over the limit of tested concentrations
[6] = system: Pseudomonas aeruginosa CCM 3955, ATCC 27853; assay: Antibacterial microdilution broth MIC, PA; type: cell-based
[7] = system: Escherichia coli CCM 3954, ATCC 25922; assay: Antibacterial microdilution broth MIC, EC; type: cell-based
[8] = system: Klebsiella pneumoniae CCM 4415, ATCC 10031; assay: Antibacterial microdilution broth MIC, KP
[9] = system: Staphylococcus aureus CCM 4223, ATCC 29213; assay: Antibacterial microdilution broth MIC, SA; type: cell-based; details: Staphylococcus aureus
[10] = system: Lichtheimia corymbifera CCM 8077; assay: Antifungal microdilution broth MIC, LC
[11] = system: Candida tropicalis CCM 8264, ATCC 750; assay: Antifungal microdilution broth MIC, CT
[12] = system: Trichophyton interdigitale CCM 8377, ATCC 9533; assay: Antifungal microdilution broth MIC, TI; details: Trichophyton interdigitale
[13] = system: Enterococcus faecalis CCM 4224, ATCC 29212; assay: Antibacterial microdilution broth MIC, EF; type: cell-based
[14] = system: Aspergillus flavus CCM 8363; assay: Antifungal microdilution broth MIC, AFla
[15] = system: Mycolicibacterium smegmatis DSM 43465; assay: Antimycobacterial microdilution broth MIC (resazurin), M. smegmatis; type: cell-based; details: DSM43465, read-out: MIC M. smegmatis
[16] = system: Acinetobacter baumannii DSM 30007, ATCC 19606; assay: Antibacterial microdilution broth MIC, ACI; type: cell-based
[17] = system: Staphylococcus epidermidis CCM 4418, ATCC 12228; assay: Antibacterial microdilution broth MIC, SE; type: cell-based
[18] = system: Mycobacterium tuberculosis H37Ra; assay: Antimycobacterial microdilution broth MIC (resazurin), Mtb H37Ra; type: cell-based; details: for MIC: Mycobacterium tuberculosis, H37RA, read-out: MIC Mtb H37Ra
[19] = system: Mycolicibacterium aurum DSM 43999; assay: Antimycobacterial microdilution broth MIC (resazurin), M. aurum; type: cell-based; details: DSM43999, read-out: MIC M. aurum
[20] = ATCC204305, 24 h, read-out: MIC AF 24h
[21] = ATCC204305, 48 h, read-out: MIC AF 48h
[22] = CCM8077, 24 h, read-out: MIC LC 24h
[23] = CCM8077, 48 h, read-out: MIC LC 48h
[24] = CCM8363, 24 h, read-out: MIC AFla 24h
[25] = CCM8363, 48 h, read-out: MIC AFla 48h

Structure (SMILES)	MIC ([1]; 24 h, read-out: MIC CP 24h) [µM]	MIC ([1]; 48 h, read-out: MIC CP 48h) [µM]	MIC ([2]; 24 h, read-out: MIC MRSA 24h) [µM]	MIC ([2]; 48 h, read-out: MIC MRSA 48h) [µM]	MIC ([3]; 24 h, read-out: MIC CA 24h) [µM]	MIC ([3]; 48 h, read-out: MIC CA 48h) [µM]	MIC ([4]; 24 h, read-out: MIC CK 24h) [µM]	MIC ([4]; 48 h, read-out: MIC CK 48h) [µM]	MIC [5, 20] [µM]	MIC [5, 21] [µM]	IC50 (HepG2 cell line) [µM]	MIC ([6]; 24 h, read-out: MIC PA 24h) [µM]	MIC ([6]; 48 h, read-out: MIC PA 48h) [µM]	MIC ([7]; 24 h, read-out: MIC EC 24h) [µM]	MIC ([7]; 48 h, read-out: MIC EC 48h) [µM]	MIC KP 24h [8] [µM]	MIC KP 48h [8] [µM]	MIC ([9]; 24 h, read-out: MIC SA 24h) [µM]	MIC ([9]; 48 h, read-out: MIC SA 48h) [µM]	MIC [10, 22] [µM]	further results
COc1cccc(CC(=O)Nc2ccc(Cl)cn2)c1 [Compound 8, 2-(3-methoxyphenyl)-N-(5-chloropyridin-2-yl)acetamide]	> 500	> 500	> 500	> 500	> 500	> 500	500 (≈ 138 µg/mL)	500 (≈ 138 µg/mL)	> 500	> 500	158	> 500	> 500	> 500	> 500	> 500	> 500	500 (≈ 138 µg/mL)	> 500	500 (≈ 138 µg/mL)	MIC [10, 23]: 500 µM (≈ 138 µg/mL); MIC ([11]; 24 h, read-out: MIC CT 24h): > 500 µM; MIC ([11]; 48 h, read-out: MIC CT 48h): > 500 µM; MIC ([12]; 72 h, read-out: MIC TI 72h): 500 µM (≈ 138 µg/mL); MIC ([12]; 120 h, read-out: MIC TI 120h): 500 µM (≈ 138 µg/mL); MIC ([13]; 24 h, read-out: MIC EF 24h): > 500 µM; MIC ([13]; 48 h, read-out: MIC EF 48h): > 500 µM; MIC [14, 24]: 500 µM (≈ 138 µg/mL); MIC [14, 25]: 500 µM (≈ 138 µg/mL); MIC [15]: > 500 µg/mL; MIC ([16]; 24 h, read-out: MIC ACI 24h): > 500 µM; MIC ([16]; 48 h, read-out: MIC ACI 48h): > 500 µM; MIC ([17]; 24 h, read-out: MIC SE 24h): 250 µM (≈ 69.2 µg/mL); MIC ([17]; 48 h, read-out: MIC SE 48h): > 500 µM; MIC ([18]; Calculated from MIC (μg/mL)): 113 µM; MIC [18]: 31.2 µg/mL; SI (selectivity index) ([18]; SI = HepG2 IC50 (μM)/MIC MtbH37Ra (μM), calculated for compounds with MIC ≤ 31.25 μg/mL): 1.4; MIC [19]: > 500 µg/mL
COc1cccc(CC(=O)Nc2cccc(Cl)n2)c1 [Compound 9, 2-(3-methoxyphenyl)-N-(6-chloropyridin-2-yl)acetamide]	500 (≈ 138 µg/mL)	500 (≈ 138 µg/mL)	> 500	> 500	500 (≈ 138 µg/mL)	500 (≈ 138 µg/mL)	500 (≈ 138 µg/mL)	500 (≈ 138 µg/mL)	500 (≈ 138 µg/mL)	> 500	638	> 500	> 500	> 500	> 500	> 500	> 500	> 500	> 500	500 (≈ 138 µg/mL)	MIC [10, 23]: > 500 µM; MIC ([11]; 24 h, read-out: MIC CT 24h): 500 µM (≈ 138 µg/mL); MIC ([11]; 48 h, read-out: MIC CT 48h): 500 µM (≈ 138 µg/mL); MIC ([12]; 72 h, read-out: MIC TI 72h): 500 µM (≈ 138 µg/mL); MIC ([12]; 120 h, read-out: MIC TI 120h): > 500 µM; MIC ([13]; 24 h, read-out: MIC EF 24h): > 500 µM; MIC ([13]; 48 h, read-out: MIC EF 48h): > 500 µM; MIC [14, 24]: 500 µM (≈ 138 µg/mL); MIC [14, 25]: > 500 µM; MIC [15]: 125 µg/mL (≈ 452 µM); MIC ([16]; 24 h, read-out: MIC ACI 24h): > 500 µM; MIC ([16]; 48 h, read-out: MIC ACI 48h): > 500 µM; MIC ([17]; 24 h, read-out: MIC SE 24h): > 500 µM; MIC ([17]; 48 h, read-out: MIC SE 48h): > 500 µM; MIC ([18]; Calculated from MIC (μg/mL)): 900 µM; MIC [18]: 250 µg/mL; MIC [19]: > 500 µg/mL
COc1ccc(CC(=O)Nc2ccccn2)cc1 [Compound 10, 2-(4-methoxyphenyl)-N-(pyridin-2-yl)acetamide]	> 500	> 500	> 500	> 500	> 500	> 500	500 (≈ 121 µg/mL)	500 (≈ 121 µg/mL)	> 500	> 500	> 1000	> 500	> 500	> 500	> 500	> 500	> 500	> 500	> 500	> 500	MIC [10, 23]: > 500 µM; MIC ([11]; 24 h, read-out: MIC CT 24h): > 500 µM; MIC ([11]; 48 h, read-out: MIC CT 48h): > 500 µM; MIC ([12]; 72 h, read-out: MIC TI 72h): 500 µM (≈ 121 µg/mL); MIC ([12]; 120 h, read-out: MIC TI 120h): 500 µM (≈ 121 µg/mL); MIC ([13]; 24 h, read-out: MIC EF 24h): > 500 µM; MIC ([13]; 48 h, read-out: MIC EF 48h): > 500 µM; MIC [14, 24]: > 500 µM; MIC [14, 25]: > 500 µM; MIC [15]: 62.5 µg/mL (≈ 258 µM); MIC ([16]; 24 h, read-out: MIC ACI 24h): > 500 µM; MIC ([16]; 48 h, read-out: MIC ACI 48h): > 500 µM; MIC ([17]; 24 h, read-out: MIC SE 24h): 500 µM (≈ 121 µg/mL); MIC ([17]; 48 h, read-out: MIC SE 48h): 500 µM (≈ 121 µg/mL); MIC ([18]; Calculated from MIC (μg/mL)): 516 µM; MIC [18]: 125 µg/mL; MIC [19]: 250 µg/mL (≈ 1030 µM)
